Laboratory results taken from patent publication US11542240B2, “STK19 inhibitors for treatment of cancer” (TRUSTEES OF BOSTON UNIVERSITY, priority 2018, dated 2023).
Read-outs that look alike come from different tables or passages of the source.

Assays:
Assay in all cases: biochemical
Type in all cases: binding
[1] = target: panel of 468 diverse kinases (Homo sapiens, UniProt O14733); conditions: MKK7; 1000 nM; read-out: Percent Control
[2] = target: panel of 468 diverse kinases (Homo sapiens, UniProt P00519, T315I); conditions: 1000 nM, read-out: Percent Control
[3] = target: panel of 468 diverse kinases (Homo sapiens, UniProt P00533); conditions: EGFR; 1000 nM; read-out: Percent Control
[4] = target: panel of 468 diverse kinases (Homo sapiens, UniProt P00533, G719C); conditions: EGFR(G719C); 1000 nM; read-out: Percent Control
[5] = target: panel of 468 diverse kinases (Homo sapiens, UniProt P04049); conditions: RAF1; 1000 nM; read-out: Percent Control
[6] = target: panel of 468 diverse kinases (Homo sapiens, UniProt P10721); conditions: 1000 nM, read-out: Percent Control
Chain of panel of 468 diverse kinases (Homo sapiens, UniProt P10721) (P10721 26-976 limits assumed): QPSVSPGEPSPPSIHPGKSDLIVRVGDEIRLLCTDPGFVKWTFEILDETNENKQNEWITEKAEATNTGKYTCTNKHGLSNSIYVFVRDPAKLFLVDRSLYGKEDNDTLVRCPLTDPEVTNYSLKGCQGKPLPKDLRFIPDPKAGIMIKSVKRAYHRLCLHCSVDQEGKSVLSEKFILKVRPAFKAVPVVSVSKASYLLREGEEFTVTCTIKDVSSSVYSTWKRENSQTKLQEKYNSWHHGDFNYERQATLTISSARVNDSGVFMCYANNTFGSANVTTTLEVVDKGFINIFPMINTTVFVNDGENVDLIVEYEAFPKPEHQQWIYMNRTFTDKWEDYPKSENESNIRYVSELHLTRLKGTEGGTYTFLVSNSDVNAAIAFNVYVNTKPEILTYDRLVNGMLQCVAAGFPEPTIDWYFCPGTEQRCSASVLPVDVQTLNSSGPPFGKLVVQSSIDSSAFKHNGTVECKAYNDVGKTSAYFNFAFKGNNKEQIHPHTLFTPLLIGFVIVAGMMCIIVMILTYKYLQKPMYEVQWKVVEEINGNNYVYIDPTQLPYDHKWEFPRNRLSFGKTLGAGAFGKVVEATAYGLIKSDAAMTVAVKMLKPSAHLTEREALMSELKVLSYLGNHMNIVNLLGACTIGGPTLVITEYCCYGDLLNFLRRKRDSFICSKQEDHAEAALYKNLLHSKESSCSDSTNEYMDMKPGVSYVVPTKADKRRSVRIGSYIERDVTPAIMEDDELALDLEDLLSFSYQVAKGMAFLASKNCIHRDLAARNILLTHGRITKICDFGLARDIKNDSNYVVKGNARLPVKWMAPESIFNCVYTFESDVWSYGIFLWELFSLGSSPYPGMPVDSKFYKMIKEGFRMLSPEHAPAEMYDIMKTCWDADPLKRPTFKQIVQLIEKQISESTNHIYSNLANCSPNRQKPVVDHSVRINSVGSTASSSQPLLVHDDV

[7] = target: panel of 468 diverse kinases (Homo sapiens, UniProt P10721, V559D); conditions: KIT(V559D); 1000 nM; read-out: Percent Control
Chain of panel of 468 diverse kinases (Homo sapiens, UniProt P10721, V559D) (P10721 26-976 V559D limits assumed): as the sequence (P10721 26-976 limits assumed) above, with V534D counted along it

[8] = target: panel of 468 diverse kinases (Homo sapiens, UniProt P12931); conditions: SRC; 1000 nM; read-out: Percent Control
Chain of panel of 468 diverse kinases (Homo sapiens, UniProt P12931) (P12931 2-536 limits assumed): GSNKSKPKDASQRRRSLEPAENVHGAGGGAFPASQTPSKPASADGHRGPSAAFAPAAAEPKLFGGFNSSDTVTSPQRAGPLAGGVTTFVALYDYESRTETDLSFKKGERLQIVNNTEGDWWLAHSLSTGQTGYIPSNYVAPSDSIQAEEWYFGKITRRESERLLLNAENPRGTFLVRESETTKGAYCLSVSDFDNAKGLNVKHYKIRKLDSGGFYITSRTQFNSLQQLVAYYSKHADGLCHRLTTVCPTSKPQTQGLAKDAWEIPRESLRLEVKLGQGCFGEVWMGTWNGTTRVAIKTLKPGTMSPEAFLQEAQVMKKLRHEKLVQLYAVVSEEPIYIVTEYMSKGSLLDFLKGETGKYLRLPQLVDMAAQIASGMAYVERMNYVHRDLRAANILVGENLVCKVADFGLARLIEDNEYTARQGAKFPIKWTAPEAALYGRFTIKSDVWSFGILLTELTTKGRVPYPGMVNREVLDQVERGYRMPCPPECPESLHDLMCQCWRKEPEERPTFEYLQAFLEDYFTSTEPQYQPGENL

[9] = target: panel of 468 diverse kinases (Homo sapiens, UniProt P22607); conditions: FGFR3; 1000 nM; read-out: Percent Control
Chain of panel of 468 diverse kinases (Homo sapiens, UniProt P22607) (P22607 23-806 limits assumed): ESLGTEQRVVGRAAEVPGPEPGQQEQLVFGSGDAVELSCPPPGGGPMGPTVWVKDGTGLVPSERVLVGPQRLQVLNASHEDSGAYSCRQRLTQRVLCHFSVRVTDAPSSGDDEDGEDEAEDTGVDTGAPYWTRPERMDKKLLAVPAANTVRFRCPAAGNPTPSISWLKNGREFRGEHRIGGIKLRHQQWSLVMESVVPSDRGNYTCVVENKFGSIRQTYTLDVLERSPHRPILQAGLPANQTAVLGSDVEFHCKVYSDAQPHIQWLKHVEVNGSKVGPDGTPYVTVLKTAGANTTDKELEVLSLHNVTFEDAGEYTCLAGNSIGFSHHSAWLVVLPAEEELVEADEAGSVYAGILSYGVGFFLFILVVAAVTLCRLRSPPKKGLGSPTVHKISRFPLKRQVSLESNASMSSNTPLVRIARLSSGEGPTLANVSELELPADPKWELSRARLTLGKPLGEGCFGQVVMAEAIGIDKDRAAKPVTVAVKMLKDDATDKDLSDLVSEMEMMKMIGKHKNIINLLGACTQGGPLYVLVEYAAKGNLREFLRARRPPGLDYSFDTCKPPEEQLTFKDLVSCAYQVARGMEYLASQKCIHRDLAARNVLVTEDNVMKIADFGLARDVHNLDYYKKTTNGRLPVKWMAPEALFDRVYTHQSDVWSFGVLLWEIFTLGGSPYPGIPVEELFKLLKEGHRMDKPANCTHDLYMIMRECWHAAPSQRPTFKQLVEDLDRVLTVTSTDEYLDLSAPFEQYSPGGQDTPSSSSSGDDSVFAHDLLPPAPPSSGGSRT

[10] = target: panel of 468 diverse kinases (Homo sapiens, UniProt P22607, G697C); conditions: FGFR3(G697C); 1000 nM; read-out: Percent Control
Chain of panel of 468 diverse kinases (Homo sapiens, UniProt P22607, G697C) (P22607 23-806 G697C limits assumed): as the sequence (P22607 23-806 limits assumed) above, with G675C counted along it

[11] = target: panel of 468 diverse kinases (Homo sapiens, UniProt P31152); conditions: ERK4; 1000 nM; read-out: Percent Control
[12] = target: panel of 468 diverse kinases (Homo sapiens, UniProt P32298); conditions: GRK4; 1000 nM; read-out: Percent Control
[13] = target: panel of 468 diverse kinases (Homo sapiens, UniProt P33981); conditions: TTK; 1000 nM; read-out: Percent Control
[14] = target: panel of 468 diverse kinases (Homo sapiens, UniProt P42684); conditions: ABL2; 1000 nM; read-out: Percent Control
[15] = target: panel of 468 diverse kinases (Homo sapiens, UniProt Q00526); conditions: CDK3; 1000 nM; read-out: Percent Control
[16] = target: panel of 468 diverse kinases (Homo sapiens, UniProt Q12852); conditions: DLK; 1000 nM; read-out: Percent Control
[17] = target: panel of 468 diverse kinases (Homo sapiens, UniProt Q32MK0); conditions: MLCK; 1000 nM; read-out: Percent Control
[18] = target: panel of 468 diverse kinases (Homo sapiens, UniProt Q6ZN16); conditions: MAP3K15; 1000 nM; read-out: Percent Control
[19] = target: panel of 468 diverse kinases (Homo sapiens, UniProt Q8IU85); conditions: CAMK1D; 1000 nM; read-out: Percent Control
[20] = target: panel of 468 diverse kinases (Homo sapiens, UniProt Q8N5S9); conditions: CAMKK1; 1000 nM; read-out: Percent Control
[21] = target: panel of 468 diverse kinases (Homo sapiens, UniProt Q8TF76); conditions: HASPIN; 1000 nM; read-out: Percent Control
[22] = target: panel of 468 diverse kinases (Homo sapiens, UniProt Q96RR4); conditions: CAMKK2; 1000 nM; read-out: Percent Control
Chain of panel of 468 diverse kinases (Homo sapiens, UniProt Q96RR4) (Q96RR4 2-588 limits assumed): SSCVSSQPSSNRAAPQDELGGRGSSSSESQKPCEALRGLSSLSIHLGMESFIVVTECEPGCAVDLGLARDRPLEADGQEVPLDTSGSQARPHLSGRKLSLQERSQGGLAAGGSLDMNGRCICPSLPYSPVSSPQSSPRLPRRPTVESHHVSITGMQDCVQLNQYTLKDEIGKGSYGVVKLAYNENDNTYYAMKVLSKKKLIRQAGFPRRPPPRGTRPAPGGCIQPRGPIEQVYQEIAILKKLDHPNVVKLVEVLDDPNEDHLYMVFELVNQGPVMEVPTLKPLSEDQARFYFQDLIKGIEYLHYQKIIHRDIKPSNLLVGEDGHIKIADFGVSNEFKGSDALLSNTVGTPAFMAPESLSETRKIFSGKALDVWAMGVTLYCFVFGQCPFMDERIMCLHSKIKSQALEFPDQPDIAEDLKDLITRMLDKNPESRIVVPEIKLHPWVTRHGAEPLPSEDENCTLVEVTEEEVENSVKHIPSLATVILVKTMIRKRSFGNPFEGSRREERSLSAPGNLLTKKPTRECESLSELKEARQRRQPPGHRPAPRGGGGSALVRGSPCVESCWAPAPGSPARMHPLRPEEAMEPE

[23] = target: panel of 468 diverse kinases (Homo sapiens, UniProt Q9C098); conditions: DCAMKL3; 1000 nM; read-out: Percent Control
[24] = target: panel of 468 diverse kinases (Homo sapiens, UniProt Q9H093); conditions: SNARK; 1000 nM; read-out: Percent Control
[25] = target: panel of 468 diverse kinases (Homo sapiens, UniProt Q9HC98); conditions: NEK6; 1000 nM; read-out: Percent Control
[26] = target: panel of 468 diverse kinases (Homo sapiens, UniProt Q9NSY1); conditions: BIKE; 1000 nM; read-out: Percent Control
[27] = target: panel of 468 diverse kinases (Homo sapiens, UniProt Q9NWZ3); conditions: IRAK4; 1000 nM; read-out: Percent Control
[28] = target: panel of 468 diverse kinases (Homo sapiens, UniProt Q9P289); conditions: MST4; 1000 nM; read-out: Percent Control
[29] = target: panel of 468 diverse kinases (Homo sapiens, UniProt Q9UQ88); conditions: CDC2L2; 1000 nM; read-out: Percent Control
[30] = target: panel of 468 diverse kinases (Homo sapiens, UniProt Q9UQM7); conditions: CAMK2A; 1000 nM; read-out: Percent Control
[31] = target: panel of 468 diverse kinases (Homo sapiens, UniProt Q9Y2H9); conditions: MAST1; 1000 nM; read-out: Percent Control

Chain of panel of 468 diverse kinases (Homo sapiens, UniProt O14733) (O14733 2-419 limits assumed): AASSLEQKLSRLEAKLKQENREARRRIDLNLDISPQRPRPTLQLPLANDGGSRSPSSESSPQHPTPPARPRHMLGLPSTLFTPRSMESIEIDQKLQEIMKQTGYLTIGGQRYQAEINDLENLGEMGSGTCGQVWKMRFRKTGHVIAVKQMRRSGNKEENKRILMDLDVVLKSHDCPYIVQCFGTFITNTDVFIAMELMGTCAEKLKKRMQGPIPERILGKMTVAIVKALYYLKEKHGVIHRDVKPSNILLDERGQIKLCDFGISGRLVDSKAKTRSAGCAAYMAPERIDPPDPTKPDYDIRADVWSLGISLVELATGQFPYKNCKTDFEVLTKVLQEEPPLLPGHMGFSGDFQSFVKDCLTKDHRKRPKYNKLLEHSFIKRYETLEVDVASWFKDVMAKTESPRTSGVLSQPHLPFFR

## COc1cc2nc(NC3CC3)nc(NC3CCN(C(C)C)CC3)c2cc1OC [Formula IV]
[1]
  remaining activity at 1 µM: 72%
[2]; ABL1(T315I)-nonphosphorylated
  remaining activity at 1 µM: 100%
[2]; ABL1(T315I)-phosphorylated
  remaining activity at 1 µM: 49%
[3]
  remaining activity at 1 µM: 97%
[4]
  remaining activity at 1 µM: 91%
[5]
  remaining activity at 1 µM: 83%
[6]; KIT-autoinhibited
  remaining activity at 1 µM: 57%
[6]; KIT
  remaining activity at 1 µM: 95%
[7]
  remaining activity at 1 µM: 100%
[8]
  remaining activity at 1 µM: 97%
[9]
  remaining activity at 1 µM: 100%
[10]
  remaining activity at 1 µM: 100%
[11]
  remaining activity at 1 µM: 91%
[12]
  remaining activity at 1 µM: 100%
[13]
  remaining activity at 1 µM: 85%
[14]
  remaining activity at 1 µM: 98%
[15]
  remaining activity at 1 µM: 100%
[16]
  remaining activity at 1 µM: 62%
[17]
  remaining activity at 1 µM: 91%
[18]
  remaining activity at 1 µM: 52%
[19]
  remaining activity at 1 µM: 100%
[20]
  remaining activity at 1 µM: 97%
[21]
  remaining activity at 1 µM: 71%
[22]
  remaining activity at 1 µM: 100%
[23]
  remaining activity at 1 µM: 92%
[24]
  remaining activity at 1 µM: 57%
[25]
  remaining activity at 1 µM: 83%
[26]
  remaining activity at 1 µM: 100%
[27]
  remaining activity at 1 µM: 78%
[28]
  remaining activity at 1 µM: 82%
[29]
  remaining activity at 1 µM: 99%
[30]
  remaining activity at 1 µM: 87%
[31]
  remaining activity at 1 µM: 72%
